Experimental findings from patent US6667025B2 (Mitsubishi Pharma Corporation, priority 1997, dated 2003) are described below.

Experiment [1] has as its system cardiac allograft, WKAH donors and ACI recipients. Put plainly: Heterotopic cardiac allograft survival, MHC-incompatible rat strains. The class given is in vivo.
In experiment [2] the test system is IL-2 mRNA in alloantigen-stimulated splenic T cells. Briefly: IL-2 mRNA expression in allogeneic mixed lymphocyte culture (PCR). Format: cell-based, rat. Particulars: 48 hours. The protocol: The housekeeping gene HPRT was used as an internal control in order to compare levels of IL-2 mRNA levels relative to the HPRT mRNA levels, as detailed below.
Allogeneic mixed lymphocyte culture was carried out by using nylon-nonadherent spleen cells of F344 rat (RT1^1v1) as responder cells and the spleen cells of WKAH rat (RT1^k) pretreated with 40 μg/ml of mitomycin C for 30 min as stimulator cells. […] After culturing for 48 hours, the cells were recovered by centrifugation. The expression of IL-2 mRNA in the cells was determined by a polymerase chain reaction (PCR) method.
Total RNA was reverse transcribed in […] of buffer solution containing 10 mmol/L Tris-HCl (pH 8.3),50 mM KCl, 5 mM MgCl2, 1 mM each dNTP (dATP, dGTP, dTTP and dCTP), 60 U RNase inhibitor (Takara Ltd. Tokyo, Japan), 15 U avian myelobalastosis virus reverse transcriptase (Takara Ltd.) and 150 pmol random 9-mers at 30° C. for 10 min and 42° C. for 30 min. Primer sequences for IL-2 and hypoxanthine-guanine phosphoribosyltransferase (HPRT) were taken from the previous report (44).
The length in base pairs of the PCR products of IL-2 and HPRT are 351 and 608 bp respectively. […] Fluorescence intensity of the specific bands was visualized by fluorescence image analyzer (FLUOR IMAGER 575®, Molecular Dynamics).

Experiment [3] relates to skin allograft, WKAH donor and F344 recipients. Format: in vivo. An excerpt: Two MHC-incompatible rat strains were selected, WKAH donor (RT1^k) and F344 recipients (RT1^IV1). Full-thickness skin grafts (2.0×2.0 cm square) were transplanted to the lateral thorax of recipients and wrapped with sterile, bactericidal gauze. The chest was then wrapped with an elastic bandage. Five days after transplantation, the wraps were removed and the grafts inspected daily for rejection. Rejection was defined as more than 90% necrosis of graft epithelium.

On to `C=CC[C@@H]1/C=C(\C)C[C@H](C)C[C@H](OC)[C@H]2O[C@@](O)(C(=O)C(=O)N3CCCC[C@H]3C(=O)O[C@H](/C(C)=C/[C@@H]3CC[C@@H](O)[C@H](OC)C3)[C@H](C)[C@@H](O)CC1=O)[C@H](C)C[C@@H]2OC` [TRL, tacrolimus, reference compound], for which, in experiment [1] (even at the highest dose tested), the “induction of long-term cardiac graft survival” value was “hardly induced long-term graft survival”. The “dose that significantly prolonged cardiac allograft survival” value in experiment [1] (vs control) is listed as at least 1 mg/kg. Also, the “concentration that inhibited IL-2 mRNA expression” value in experiment [2] is at least 1 nM. Besides, the “median survival time (MST) of skin graft” value in experiment [3] (10 mg/kg for 14 days) was 22.5 days. Also, the “oral dose that significantly prolonged skin graft survival” value in experiment [3] (oral, WKAH to F344 rats) is recorded as at least 0.3 mg/kg.
